These compounds were tested against recombinant HCV NS5B (HCV RNA-dependent RNA polymerase) (Hepatitis C virus genotype 1b, UniProt P26663) (assay: biochemical). Conditions: related polymerase activity (Example 27 list); read-out: IC50.
recombinant HCV NS5B (HCV RNA-dependent RNA polymerase), sequence (P26663 2420-3010 limits assumed): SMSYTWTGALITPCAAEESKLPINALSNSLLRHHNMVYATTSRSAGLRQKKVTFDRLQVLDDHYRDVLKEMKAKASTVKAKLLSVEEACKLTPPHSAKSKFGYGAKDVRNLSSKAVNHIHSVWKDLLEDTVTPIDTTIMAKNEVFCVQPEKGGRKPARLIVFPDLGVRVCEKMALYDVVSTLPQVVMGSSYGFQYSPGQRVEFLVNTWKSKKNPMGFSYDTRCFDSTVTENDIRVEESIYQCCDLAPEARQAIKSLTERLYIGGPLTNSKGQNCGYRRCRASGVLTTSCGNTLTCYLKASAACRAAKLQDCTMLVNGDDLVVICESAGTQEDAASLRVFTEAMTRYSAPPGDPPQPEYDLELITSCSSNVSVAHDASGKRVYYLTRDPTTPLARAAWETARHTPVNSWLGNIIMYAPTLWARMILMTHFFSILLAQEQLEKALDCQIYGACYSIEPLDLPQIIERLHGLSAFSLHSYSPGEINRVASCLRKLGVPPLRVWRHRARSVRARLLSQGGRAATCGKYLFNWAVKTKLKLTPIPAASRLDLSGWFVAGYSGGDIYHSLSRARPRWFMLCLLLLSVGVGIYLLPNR
With Cc1ccccc1S(=O)(=O)Nc1cc(-c2ccc(Cl)cn2)sc1C(=O)O [Compound 191, 5-(5-CHLORO-PYRIDIN-2-YL)-3-(TOLUENE-2-SULFONYLAMINO)-THIOPHENE-2-CARBOXYLIC ACID] the IC50 was < 5 µM.
For Cc1ccc(C(=O)N(C)c2cc(-c3ccc(Cl)cc3)sc2C(=O)O)cc1 [Compound 192, 5-(4-CHLORO-PHENYL)-3-[METHYL-(4-METHYL-BENZOYL)-AMINO]-THIOPHENE-2-CARBOXYLIC ACID], the IC50 was 5 to 20 µM.
With Cc1ccc(C(=O)N(C)c2cc(-c3ccc(C#N)cc3)sc2C(=O)O)cc1 [Compound 193, 5-(4-CYANO-PHENYL)-3-[METHYL-(4-METHYL-BENZOYL)-AMINO]-THIOPHENE-2-CARBOXYLIC ACID] the IC50 was 5 to 20 µM.
Cc1ccc(C(=O)N(C)c2cc(-c3ccc([N+](=O)[O-])cc3)sc2C(=O)O)cc1 [Compound 194, 3-[METHYL-(4-METHYL-BENZOYL)-AMINO]-5-(4-NITRO-PHENYL)-THIOPHENE-2-CARBOXYLIC ACID] showed an IC50 of 5 to 20 µM.
Cc1ccc(C(=O)N(C)c2cc(-c3ccc(CO)cc3)sc2C(=O)O)cc1 [Compound 195, 5-(4-HYDROXYMETHYL-PHENYL)-3-[METHYL-(4-METHYL-BENZOYL)-AMINO]-THIOPHENE-2-CARBOXYLIC ACID] showed an IC50 of 5 to 20 µM.
With Cc1ccc(C(=O)N(C)c2cc(-c3cccc([N+](=O)[O-])c3)sc2C(=O)O)cc1 [Compound 196, 3-[METHYL-(4-METHYL-BENZOYL)-AMINO]-5-(3-NITRO-PHENYL)-THIOPHENE-2-CARBOXYLIC ACID] the IC50 was < 5 µM.
For Cc1ccc(C(=O)N(C)c2cc(-c3ccc(F)cc3)sc2C(=O)O)cc1 [Compound 197, 5-(4-FLUORO-PHENYL)-3-[METHYL-(4-METHYL-BENZOYL)-AMINO]-THIOPHENE-2-CARBOXYLIC ACID], the IC50 was < 5 µM.
Compound COc1ccc(-c2cc(N(C)C(=O)c3ccc(C)cc3)c(C(=O)O)s2)cc1 [Compound 198, 5-(4-METHOXY-PHENYL)-3-[METHYL-(4-METHYL-BENZOYL)-AMINO]-THIOPHENE-2-CARBOXYLIC ACID] has an IC50 of 5 to 20 µM.
In the case of Cc1ccc(C(=O)N(C)c2cc(-c3ccc(C)cc3)sc2C(=O)O)cc1 [Compound 199, 3-[METHYL-(4-METHYL-BENZOYL)-AMINO]-5-P-TOLYL-THIOPHENE-2-CARBOXYLIC ACID], the IC50 is reported as 5 to 20 µM.
With Cc1ccc(C(=O)N(C)c2cc(-c3ccc(N)cc3)sc2C(=O)O)cc1 [Compound 200, 5-(4-AMINO-PHENYL)-3-[METHYL-(4-METHYL-BENZOYL)-AMINO]-THIOPHENE-2-CARBOXYLIC ACID] the IC50 was 5 to 20 µM.
With O=C(O)c1sc(-c2ccccc2)cc1N(C(=O)c1ccc(Cl)cc1Cl)C1CCCC1 [Compound 201, 3-[CYCLOPENTYL-(2,4-DICHLORO-BENZOYL)-AMINO]-5-PHENYL-THIOPHENE-2-CARBOXYLIC ACID] the IC50 was < 5 µM.
For Cc1ccccc1S(=O)(=O)Nc1cc(-c2ccc3c(c2)OCO3)sc1C(=O)O [Compound 202, 5-BENZO[1,3]DIOXOL-5-YL-3-(TOLUENE-2-SULFONYLAMINO)-THIOPHENE-2-CARBOXYLIC ACID], the IC50 was < 5 µM.
In the case of Cc1ccc(C(=O)N(CCO)c2cc(-c3ccccc3)sc2C(=O)O)cc1 [Compound 203, 3-[(2-HYDROXY-ETHYL)-(4-METHYL-BENZOYL)-AMINO]-5-PHENYL-THIOPHENE-2-CARBOXYLIC ACID], the IC50 is reported as < 5 µM.
In the case of CC(C)CN(C(=O)c1ccc(Cl)cc1Cl)c1cc(-c2ccccc2)sc1C(=O)O [Compound 204, 3-[(2,4-DICHLORO-BENZOYL)-ISOBUTYL-AMINO]-5-PHENYL-THIOPHENE-2-CARBOXYLIC ACID], the IC50 is reported as < 5 µM.
COc1cc(C)ccc1C(=O)N(C)c1cc(-c2ccccc2)sc1C(=O)O [Compound 205, 3-[(2-METHOXY-4-METHYL-BENZOYL)-METHYL-AMINO]-5-PHENYL-THIOPHENE-2-CARBOXYLIC ACID] was tested, and the IC50 was 5 to 20 µM.
In the case of Cc1ccc(C(=O)N(C)c2cc(-c3cccc(C#N)c3)sc2C(=O)O)cc1 [Compound 206, 5-(3-CYANO-PHENYL)-3-[METHYL-(4-METHYL-BENZOYL)-AMINO]-THIOPHENE-2-CARBOXYLIC ACID], the IC50 is reported as < 5 µM.
Work on Cc1ccc(C(=O)N(C)c2cc(-c3ccccc3Cl)sc2C(=O)O)cc1 [Compound 207, 5-(2-CHLORO-PHENYL)-3-[METHYL-(4-METHYL-BENZOYL)-AMINO]-THIOPHENE-2-CARBOXYLIC ACID] yielded an IC50 of 5 to 20 µM.
For O=C(O)c1sc(-c2ccccc2)cc1N(C(=O)c1ccc(Cl)cc1Cl)c1ccccc1 [Compound 208, 3-[(2,4-DICHLORO-BENZOYL)-PHENYL-AMINO]-5-PHENYL-THIOPHENE-2-CARBOXYLIC ACID], the IC50 was < 5 µM.
Work on CN(C(=O)c1ccc(C(F)(F)F)cc1)c1cc(-c2ccccc2)sc1C(=O)O [Compound 209, 3-[4-(TRIFLUOROMETHYL-BENZOYL)METHYLAMINE]-5-PHENYL-THIOPHENE-2-CARBOXYLIC ACID] yielded an IC50 of 5 to 20 µM.
For CC(C)N(C(=O)c1ccc(Cl)cc1)c1cc(-c2ccccc2)sc1C(=O)O [Compound 210, 3-[(4-CHLORO-BENZOYL)-ISOPROPYL-AMINO]-5-PHENYL-THIOPHENE-2-CARBOXYLIC ACID], the IC50 was < 5 µM.
Cc1ccc(C(=O)N(c2cc(-c3ccccc3)sc2C(=O)O)C(C)C)cc1 [Compound 211, 3-[ISOPROPYL-(4-METHYL-BENZOYL)-AMINO]-5-PHENYL-THIOPHENE-2-CARBOXYLIC ACID] was tested, and the IC50 was < 5 µM.
With Cc1ccc(C(=O)N(C)c2cc(-c3cc(F)cc(F)c3)sc2C(=O)O)cc1 [Compound 212, 5-(3,5-DIFLUORO-PHENYL)-3-[METHYL-(4-METHYL-BENZOYL)-AMINO]-THIOPHENE-2-CARBOXYLIC ACID] the IC50 was < 5 µM.
With Cc1ccc(C(=O)N(C)c2cc(-c3cccc(F)c3)sc2C(=O)O)cc1 [Compound 213, 5-(3-FLUORO-PHENYL)-3-[METHYL-(4-METHYL-BENZOYL)-AMINO]-THIOPHENE-2-CARBOXYLIC ACID] the IC50 was < 5 µM.
Cc1ccc(C(=O)N(C)c2cc(-c3ccc(F)cc3F)sc2C(=O)O)cc1 [Compound 214, 5-(2,4-DIFLUORO-PHENYL)-3-[METHYL-(4-METHYL-BENZOYL)-AMINO]-THIOPHENE-2-CARBOXYLIC ACID] showed an IC50 of 5 to 20 µM.
Cc1ccc(C(=O)N(C)c2cc(-c3ccc(O)cc3)sc2C(=O)O)cc1 [Compound 215, 5-(4-HYDROXY-PHENYL)-3-[METHYL-(4-METHYL-BENZOYL)-AMINO]-THIOPHENE-2-CARBOXYLIC ACID] was tested, and the IC50 was < 5 µM.
Cc1ccc(C(=O)N(C)c2cc(-c3ccc(OC(F)(F)F)cc3)sc2C(=O)O)cc1 [Compound 216, 3-[METHYL-(4-METHYL-BENZOYL)-AMINO]-5-(4-TRIFLUOROMETHOXY-PHENYL)-THIOPHENE-2-CARBOXYLIC ACID] showed an IC50 of 5 to 20 µM.
In the case of Cc1ccccc1S(=O)(=O)Nc1cc(-c2ccccc2O)sc1C(=O)O [Compound 217, 5-(2-HYDROXY-PHENYL)-3-(TOLUENE-2-SULFONYLAMINO)-THIOPHENE-2-CARBOXYLIC ACID], the IC50 is reported as 5 to 20 µM.
Work on CC(C)N(C(=O)c1ccccc1Cl)c1cc(-c2ccccc2)sc1C(=O)O [Compound 218, 3-[(2-CHLORO-BENZOYL)-ISOPROPYL-AMINO]-5-PHENYL-THIOPHENE-2-CARBOXYLIC ACID] yielded an IC50 of 5 to 20 µM.
In the case of CC(C)N(C(=O)c1cc(Cl)cc(Cl)c1)c1cc(-c2ccccc2)sc1C(=O)O [Compound 219, 3-[(3,5-DICHLORO-BENZOYL)-ISOPROPYL-AMINO]-5-PHENYL-THIOPHENE-2-CARBOXYLIC ACID], the IC50 is reported as 5 to 20 µM.
Cc1cc(Br)ccc1S(=O)(=O)Nc1cc(-c2ccccc2)sc1C(=O)O [Compound 220, 3-(4-BROMO-2-METHYL-BENZENESULFONYLAMINO)-5-PHENYL-THIOPHENE-2-CARBOXYLIC ACID] was tested, and the IC50 was < 5 µM.
In the case of O=C(O)c1cc(S(=O)(=O)Nc2cc(-c3ccccc3)sc2C(=O)O)c(F)cc1Cl [Compound 221, 3-(5-CARBOXY-4-CHLORO-2-FLUORO-BENZENESULFONYLAMINO)-5-PHENYL-THIOPHENE-2-CARBOXYLIC ACID], the IC50 is reported as > 20 µM.
In the case of O=C(O)c1sc(-c2ccccc2)cc1NS(=O)(=O)c1ccc(F)c(F)c1F [Compound 222, 5-PHENYL-3-(2,3,4-TRIFLUORO-BENZENESULFONYLAMINO)-THIOPHENE-2-CARBOXYLIC ACID], the IC50 is reported as 5 to 20 µM.
CC(C)N(C(=O)c1ccc(F)cc1)c1cc(-c2ccccc2)sc1C(=O)O [Compound 226, 3-[(4-FLUORO-BENZOYL)-ISOPROPYL-AMINO]-5-PHENYL-THIOPHENE-2-CARBOXYLIC ACID] gave an IC50 of 5 to 20 µM.
CC(=O)c1ccc(-c2cc(NS(=O)(=O)c3ccccc3C)c(C(=O)O)s2)s1 [Compound 229, 5′-ACETYL-4-(TOLUENE-2-SULFONYLAMINO)-[2,2′]BITHIOPHENYL-5-CARBOXYLIC ACID] was tested, and the IC50 was < 5 µM.
For Cc1ccccc1S(=O)(=O)Nc1cc(-c2cc3ccccc3s2)sc1C(=O)O [Compound 230, 5-BENZO[B]THIOPHEN-2-YL-3-(TOLUENE-2-SULFONYLAMINO)-THIOPHENE-2-CARBOXYLIC ACID], the IC50 was < 5 µM.
In the case of CCCCc1ccc(-c2cc(NS(=O)(=O)c3ccccc3C)c(C(=O)O)s2)cc1 [Compound 231, 5-(4-BUTYL-PHENYL)-3-(TOLUENE-2-SULFONYLAMINO)-THIOPHENE-2-CARBOXYLIC ACID], the IC50 is reported as < 5 µM.
For CCc1ccc(-c2cc(NS(=O)(=O)c3ccccc3C)c(C(=O)O)s2)cc1 [Compound 232, 5-(4-ETHYL-PHENYL)-3-(TOLUENE-2-SULFONYLAMINO)-THIOPHENE-2-CARBOXYLIC ACID], the IC50 was < 5 µM.
In the case of O=C(O)c1sc(-c2ccccc2)cc1N(Cc1ccccc1)C(=O)c1ccc(Cl)cc1Cl [Compound 233, 3-[BENZYL-(2,4-DICHLORO-BENZOYL)-AMINO]-5-PHENYL-THIOPHENE-2-CARBOXYLIC ACID], the IC50 is reported as < 5 µM.
Cc1cc(Cl)ccc1C(=O)N(c1cc(-c2ccccc2)sc1C(=O)O)C(C)C [Compound 234, 3-[(4-CHLORO-2-METHYL-BENZOYL)-ISOPROPYL-AMINO]-5-PHENYL-THIOPHENE-2-CARBOXYLIC ACID] was tested, and the IC50 was < 5 µM.
For Cc1ccc(S(=O)(=O)N(C)c2cc(-c3ccccc3)sc2C(=O)O)c(C)c1 [Compound 235, 3-[(2,4-DIMETHYL-BENZENESULFONYL)-METHYL-AMINO]-5-PHENYL-THIOPHENE-2-CARBOXYLIC ACID], the IC50 was < 5 µM.
For CC(=O)c1ccc(-c2cc(NS(=O)(=O)c3ccc(C)cc3C)c(C(=O)O)s2)cc1 [Compound 236, 5-(4-ACETYL-PHENYL)-3-(2,4-DIMETHYL-BENZENESULFONYLAMINO)-THIOPHENE-2-CARBOXYLIC ACID], the IC50 was < 5 µM.

Reference: US6881741B2 (ViroChem Pharma Inc., priority 2001, dated 2005)
